d = 2'-deoxy (DNA); m = 2'-O-methyl
Tests used:
MCF-7 cell line = assay: Internalization of carboxyfluorescein-conjugated APT20TTMG by flow cytometry; assay type: cell-based, Human; settings: 1 μM carboxyfluorescein conjugate
Method: To investigate the internalization of ASMO APT20TTMG by MCF-7 cell line, the quantification of intracellular fluorescence was measured by flow cytometry. For this aim, the ASMO APT20TTMG was conjugated to the fluorochrome carboxyfluorescein. It is assumed that the percentage of ASMO molecules internalized is presumably proportional to the quantified fluorescence signal detected inside the cells. The cell lines were cultured in 24-well plates for 24 hours at 5×10^4 cells per well. After that, the cells were incubated with ASMO1 prepared in culture medium without FBS at a concentration of 1 μM for 0.5, 1, 2, 4, and 6 hours. Untreated cells were used as negative controls. After treatment incubation, cells were washed twice with 1 mL of PBS/well and then incubated with 200 μL/well of trypsin/EDTA solution for approximately 3 minutes for disaggregation of adherent cells. Trypsin was neutralized by the addition of complete medium and cells were centrifuged at 1500 rpm for 5 minutes. Subsequently, the cells were washed with 2 mL/sample of PBS and centrifuged again at 1500 rpm for 5 minutes. […] The fluorescence of the cells, corresponding to the cellular uptake of the APT20TTMG labeled with carboxyfluorescein, was analyzed using a BD FACSCANTO II Flow cytometer (BD Biosciences, NJ, USA) through the acquisition of 10.000 gated events considering each sample.

[1] = system: U87MG (Human Glioblastoma); assay: BrdU cell proliferation assay; assay type: cell-based
Method: In vitro effects of APT20TTMG on viability and proliferation of human cancer cell line U87MG (Human Glioblastoma) were also evaluated by MTT and BrdU assays, respectively. Cells were treated with APT20TTMG and Reference Items in technical triplicates (Experiment was done in 3 different sets) at various concentrations for 48 h, 96 h, and 144 h. APT20TTMG and Reference Items were read after every 48 h.
As shown in FIGS. 32-33, A MTT assay (FIG. 32) was also performed with another five different concentrations of APT20TTMG (0.003, 0.03, 0.3, 3, and 30 μM) and at 48, 96, and 144 hours of incubation. […] Finally, to confirm whether APT20TTMG is a cytotoxic or cytostatic molecule considering its ability to reduce cellular viability in certain concentrations, a cell proliferation assay (FIG. 33) with the U87-MG cell line was also performed in the same conditions as the MTT assay. […] Cells were plated and treated with 5 different concentrations (0.003, 0.03, 0.3, 3, and 30 μM). BrdU assay was performed after 48, 96, or 144 hours of incubation. Data are plotted as a percentage (%) of cell viability compared to the negative control group (vehicle). Results are expressed as Mean±SEM of three independent experiments performed in three technical replicates. Statistical analysis was performed using one-way ANOVA followed by Dunnett's multiple comparison test. *p<0.05, **p<0.01, ***p<0.001, ****p<0.0001.

PC-3 cell line = assay: MTT cytotoxicity assay on human cancer cell panel (Example 2); assay type: cell-based; settings: 24, 48, 72 hours; 0.03-30 μM; 1% FBS
Method: Cell lines were maintained in growth medium with 10% of Fetal Bovine Serum (FBS) until the time of the experiments. Cells were sub-cultured by trypsinization and splitting the cell suspension into fresh flasks and supplementing with fresh culture medium. To perform the assay, the cells were trypsinized, neutralized with complete medium (10% FBS), centrifuged, counted with assistance of a hemocytometer, and plated with the respective media with 10% FBS. Cell lines were plated at a density of 1×10^4 cells per well, other than the SH-SY5Y cell line which was plated at a density of 2.5×10^4. The preparation of the different experimental groups was done with 0.1% FBS (U87MG, MCF-7, SH-SY5Y and 786-O) and 1% FBS (PC-3). The untreated cells were used as negative control (medium only). After 24, 48, 72 and 96 hours of incubation, the effect of ASMO1 and controls on cytotoxicity of cells was determined by MTT assay.
Briefly, plates were taken out and 20 μl of 5 mg/ml of MTT 3-(4,5-dimethythiazol-2-yl)-2,5-diphenyl tetrazolium bromide solution was added to all the wells. […] The absorbance of each well was then read at 540 nm using Synergy HT microplate reader.
Cells were plated and treated with 7 different concentrations (0.03, 0.1, 0.3, 1, 3, 10 and 30 μM) of APT20TTMG with medium (1% FBS). MTT assay was performed in 3 distinct times and graphs are represented as absorbance (540 nm). […]

## APT20TTMG: engineered polynucleotide ASMO1, 24 nt, SEQ ID NO: 3 gtccactaacctttcaggccagcg; targeting moieties 5′-GTCCA-3′ and 5′-CG-3′, U1 snRNP recruiting moiety (GTCCACTAACCTTTCAGGCCAGCG; sugars from the 5' end m5 d14 m5, all phosphorothioate, methylation of C and T or U not given here)
MCF-7 cell line; after 1 hour and subsequent period (to 6 h)
  internalization: around 80%
MCF-7 cell line; first half hour
  internalization: 75.3±1.4%
[1]; 0.03 μM, first 48 hours
  cell proliferation (BrdU): increase in cell proliferation
[1]; highest concentrations (0.3, 3, 30 μM), 144 hours
  cell proliferation (BrdU): significant reduction in cell proliferation
[1]; highest concentrations (0.3, 3, 30 μM), first 48 hours
  cell proliferation (BrdU): temporary increase in cell proliferation
[1]; lowest concentrations (0.003 and 0.03 μM), 144 hours
  cell proliferation (BrdU): statistically significant decrease in proliferation
PC-3 cell line
  cytotoxic or cytostatic effect (MTT): does not exert a cytotoxic or cytostatic effect
